# Laboratory results taken from patent US20180282679A1, “CELL CULTURE APPARATUS” (The Ritsumeikan Trust, priority 2015, published 2018).
# Legend:
# caco-2 cells [1] = test: Evaluation Test 3: absorption of dyes in tubular-form culture substrates having different inner diameters; type: in vitro ADME; details: inner diameter 0.5, 1.0 and 2.0 mm; flow rate 0.05 mL/min, perfused for 3 minutes
# From the text: The inventors of the present application studied dynamic characteristics of a fluid and absorption of a drug into a culture substrate in a tubular form when a liquid such as a drug solution was caused to flow in the culture substrate. Specifically, a fluid containing a drug was caused to flow in a plurality of types of tubular-form culture substrates having different inner diameters, and the states of the culture substrates before and after the flow of the fluid were observed. In addition, dynamic characteristics of the fluid in the respective tubular-form culture substrates were obtained by calculation.
# where Q is the flow rate of the liquid, μ is the viscosity of the liquid, ρ is the density of the liquid, L is the length of the tube, and r is the radius of the tube. The flow rate Q of the liquid is 0.05 mL/min, and the liquid was perfused for 3 minutes.
# FIGS. 19A, 19B and 19C show images obtained by causing a fluid containing Texas Red as a model of a lipophilic drug to flow in three types of tubular-form culture substrates having different diameters, and imaging fluorescence signals from the Texas Red. […]
# FIGS. 20A, 20B and 20C show images obtained by causing a fluid containing calcein as a model of a hydrophilic drug to flow in three types of tubular-form culture substrates having different inner diameters, and imaging fluorescence signals from the calcein.
# caco-2 cells [2] = test: Evaluation Test 2: perfusion of fluorescent dyes through the tubular-form culture substrate, absorption into cultured cells; type: in vitro ADME; details: HBSS, flow rate 0.05 mL min^-1 for 1 hour; calcein 100 μmol L^-1, Texas Red 10 μmol L^-1
# Procedure: Specifically, caco-2 cells imitating intestinal epithelium were cultured on a culture substrate. Caco-2 cells produced by DS pharma biomedical Co., Ltd. were used. The caco-2 cells were cultured in DMEM (Dulbecco-modified eagle's medium) to which 10% heat inactivated fetal bovine serum, penicillin G (100 U mL^−1), streptomycin (100 μg mL^−1), and 1% non-essential amino acid were added, under an environment at 37° C., 5% CO2), and 95% air. The caco-2 cells were dissociated in EDTA and 0.05% trypsin and passaged, and then the cells were seeded on collagen that forms a culture substrate on an upper surface of a balloon actuator. The caco-2 cells reached confluence in 7 days. The culture medium was replaced every 24 hours. […]
# The culture substrate in the tubular form was perfused with HBSS (Hanks' Balanced Salt Solution) containing fluorescent dyes, as a liquid corresponding to a drug solution, at a flow rate of 0.05 mL min^−1 for 1 hour. […] Thereafter, bright field images and fluorescence images of the caco-2 cells at a bottom part and an upper part of the culture substrate in the tubular form were observed.
# FIGS. 16A, 16B, 16C, 16D, 16E and 16G show microscope images of the caco-2 cells. […] FIGS. 16C and 16D show images obtained by imaging fluorescence signals from calcein at the bottom part and the upper part of the culture substrate in the tubular form, respectively. […]
Compound,speed of absorption depending on inner diameter of the tubular-form culture substrate (fluorescence images) (caco-2 cells [1]),absorption in the caco-2 cells (fluorescence images at bottom part and upper part of the tubular culture substrate) (caco-2 cells [2])
O=C(O)CN(CC(=O)O)Cc1cc2c(cc1O)Oc1cc(O)c(CN(CC(=O)O)CC(=O)O)cc1C21OC(=O)c2ccccc21 [calcein],substantially no difference was observed in the speed of absorbing the hydrophilic drug,uniformly absorbed in the caco-2 cells
Texas Red,"the smaller the inner diameter of the tube is, the faster the lipophilic drug is absorbed",uniformly absorbed in the caco-2 cells
